pKi: −log10 of the molar value.
What was measured:
JAK2 = JAK2 (Homo sapiens, UniProt O60674); assay: JAK2 Inhibition Assay; type: biochemical; conditions: JAK-2 enzyme, 15 μM poly(Glu)4Tyr, 12 μM ATP
Protocol: (§1) Compounds were screened for their ability to inhibit JAK3 using the assay shown below. Reactions were carried out in a kinase buffer containing 100 mM HEPES (pH 7.4), 1 mM DTT, 10 mM MgCl2, 25 mM NaCl, and 0.01% BSA. Substrate concentrations in the assay were 5 μM ATP (200 uCi/μmole ATP) and 1 μM poly(Glu)4Tyr. Reactions were carried out 25° C. and 1 nM JAK3.
(§2) To each well of a 96 well polycarbonate plate was added 1.5 μl of a candidate JAK3 inhibitor along with 50 μl of kinase buffer containing 2 μM poly(Glu)4Tyr and 10 μM ATP. This was then mixed and 50 μl of kinase buffer containing 2 nM JAK3 enzyme was added to start the reaction. After 20 minutes at room temperature (25° C.), the reaction was stopped with 50 μl of 20% trichloroacetic acid (TCA) that also contained 0.4 mM ATP. The entire contents of each well were then transferred to a 96 well glass fiber filter plate using a TomTek Cell Harvester. After washing, 60 μl of scintillation fluid was added and ^33P incorporation detected on a Perkin Elmer TopCount.
The assays were as described above in Example 36 except that JAK-2 enzyme was used, the final poly(Glu)4Tyr concentration was 15 μM, and final ATP concentration was 12 μM.

JAK3 = molecular target: T1, JAK3 (Homo sapiens, UniProt P52333); assay: JAK3 Inhibition Assay; type: biochemical; conditions: 1 nM JAK3, 1 μM poly(Glu)4Tyr, 5 μM ATP, 25° C.; read-out: enzyme inhibition data (Ki) JAK3
T1 sequence (P52333 1-1124): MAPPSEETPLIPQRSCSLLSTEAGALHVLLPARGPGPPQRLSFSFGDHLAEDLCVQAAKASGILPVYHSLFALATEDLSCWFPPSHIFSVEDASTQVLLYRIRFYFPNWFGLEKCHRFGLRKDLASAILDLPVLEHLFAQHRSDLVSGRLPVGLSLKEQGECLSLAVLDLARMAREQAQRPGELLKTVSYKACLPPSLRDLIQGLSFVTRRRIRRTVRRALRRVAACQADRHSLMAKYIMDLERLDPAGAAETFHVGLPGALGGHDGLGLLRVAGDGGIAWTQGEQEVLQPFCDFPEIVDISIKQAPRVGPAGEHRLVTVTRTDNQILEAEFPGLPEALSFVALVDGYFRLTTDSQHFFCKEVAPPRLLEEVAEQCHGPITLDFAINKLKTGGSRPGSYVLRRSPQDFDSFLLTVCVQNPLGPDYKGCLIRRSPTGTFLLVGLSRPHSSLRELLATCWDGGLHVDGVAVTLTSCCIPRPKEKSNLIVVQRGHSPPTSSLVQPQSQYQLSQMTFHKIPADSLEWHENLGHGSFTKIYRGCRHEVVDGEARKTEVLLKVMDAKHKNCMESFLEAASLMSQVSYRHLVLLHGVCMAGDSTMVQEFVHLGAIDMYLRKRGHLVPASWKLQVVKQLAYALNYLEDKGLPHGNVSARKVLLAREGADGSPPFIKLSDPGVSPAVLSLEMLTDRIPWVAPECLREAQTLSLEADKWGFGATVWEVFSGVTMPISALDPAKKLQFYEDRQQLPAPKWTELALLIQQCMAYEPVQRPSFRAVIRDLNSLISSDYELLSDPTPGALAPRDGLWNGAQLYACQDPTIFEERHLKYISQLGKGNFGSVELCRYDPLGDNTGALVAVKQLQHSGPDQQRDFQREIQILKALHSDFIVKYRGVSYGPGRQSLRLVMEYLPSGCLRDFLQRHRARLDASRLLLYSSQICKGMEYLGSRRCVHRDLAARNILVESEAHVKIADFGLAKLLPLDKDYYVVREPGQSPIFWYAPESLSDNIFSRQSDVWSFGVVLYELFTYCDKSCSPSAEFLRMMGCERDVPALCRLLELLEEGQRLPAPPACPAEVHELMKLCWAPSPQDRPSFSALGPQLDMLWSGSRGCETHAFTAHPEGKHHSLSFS
Protocol: as §1, §2

JAK2, sequence (O60674 whole entry): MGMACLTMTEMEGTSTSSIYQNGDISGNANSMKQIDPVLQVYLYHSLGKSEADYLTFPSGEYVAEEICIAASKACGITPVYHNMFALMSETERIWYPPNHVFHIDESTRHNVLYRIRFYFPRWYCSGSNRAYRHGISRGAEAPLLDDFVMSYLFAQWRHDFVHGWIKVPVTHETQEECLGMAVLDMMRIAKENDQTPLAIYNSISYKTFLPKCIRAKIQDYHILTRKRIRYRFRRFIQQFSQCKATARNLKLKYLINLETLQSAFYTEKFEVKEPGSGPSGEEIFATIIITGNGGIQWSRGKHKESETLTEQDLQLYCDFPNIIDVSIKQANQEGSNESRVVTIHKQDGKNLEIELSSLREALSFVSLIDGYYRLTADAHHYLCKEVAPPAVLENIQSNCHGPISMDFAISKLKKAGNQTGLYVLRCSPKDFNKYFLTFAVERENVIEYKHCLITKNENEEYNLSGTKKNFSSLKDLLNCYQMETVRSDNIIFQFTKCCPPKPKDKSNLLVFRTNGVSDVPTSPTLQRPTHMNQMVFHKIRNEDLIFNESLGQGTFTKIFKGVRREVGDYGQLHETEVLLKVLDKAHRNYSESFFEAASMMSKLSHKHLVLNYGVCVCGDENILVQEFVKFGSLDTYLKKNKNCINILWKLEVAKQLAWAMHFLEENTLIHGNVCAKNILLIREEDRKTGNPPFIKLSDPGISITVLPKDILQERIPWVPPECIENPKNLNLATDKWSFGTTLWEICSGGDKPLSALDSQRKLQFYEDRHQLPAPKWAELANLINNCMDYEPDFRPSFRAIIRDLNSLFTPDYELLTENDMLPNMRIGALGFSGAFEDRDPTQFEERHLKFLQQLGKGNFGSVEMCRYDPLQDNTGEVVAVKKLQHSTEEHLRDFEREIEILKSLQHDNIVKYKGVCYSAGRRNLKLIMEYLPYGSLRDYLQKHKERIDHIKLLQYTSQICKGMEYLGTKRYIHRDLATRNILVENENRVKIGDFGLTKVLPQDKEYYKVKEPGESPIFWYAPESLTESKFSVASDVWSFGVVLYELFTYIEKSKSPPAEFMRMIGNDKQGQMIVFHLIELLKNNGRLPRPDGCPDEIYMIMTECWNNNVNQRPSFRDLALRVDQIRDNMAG

SMILES	pKi (JAK2)	pKi (JAK3)
O=C(CNc1nc(-c2c[nH]c3ncncc23)ncc1F)NCC(F)(F)F [Compound 70]	5.30 to 6.30	> 6.30
O=C(CCNc1nc(-c2c[nH]c3ncncc23)ncc1F)NCC(F)(F)F [Compound 71]	> 6.30	> 6.30
CC[C@@](C)(Nc1ccnc(-c2c[nH]c3ncncc23)n1)C(=O)NCC(F)(F)F [Compound 80]	> 6.30	> 6.30
C[C@H](Nc1ccnc(-c2c[nH]c3ncncc23)n1)c1ccc(F)cc1 [Compound 84]	> 6.30	> 6.30
C[C@H](c1ccccc1)N(C)c1ccnc(-c2c[nH]c3ncncc23)n1 [Compound 85]	> 6.30	> 6.30
O=C(NCC(F)(F)F)[C@H]1C[C@H](O)CN1c1nc(-c2c[nH]c3ncncc23)ncc1F [Compound 93]	5.30 to 6.30	> 6.30
O=C(NCC(F)(F)F)C1CN(c2nc(-c3c[nH]c4ncncc34)ncc2F)C1 [Compound 95]	< 5.30	< 5.30
CN(c1ccnc(-c2c[nH]c3ncncc23)n1)C1(C(=O)NCC(F)(F)F)CC1 [Compound 96]	> 6.30	> 6.30
CN(c1ccnc(-c2c[nH]c3ncncc23)n1)C(C(=O)NCC(F)(F)F)c1ccccc1 (centres unmarked) [Compound 97]	5.30 to 6.30	> 6.30
O=C(NCC(F)(F)F)C1(Nc2ccnc(-c3c[nH]c4ncncc34)n2)CCCC1 [Compound 98]	> 6.30	> 6.30
CN(c1nc(-c2c[nH]c3ncncc23)ncc1F)C(C(=O)NCC(F)(F)F)c1ccccc1 (centres unmarked) [Compound 100]	5.30 to 6.30	> 6.30
O=C(NCC(F)(F)F)C1(Nc2ccnc(-c3c[nH]c4ncncc34)n2)CCOC1 (centres unmarked) [Compound 101]	> 6.30	> 6.30
C[C@@H](Nc1ccnc(-c2c[nH]c3ncncc23)n1)C(=O)N(C)CC(F)(F)F [Compound 103]	5.30 to 6.30	> 6.30
CC(C)(Nc1nc(-c2c[nH]c3ncncc23)nc2ccccc12)C(=O)NCC(F)(F)F [Compound 105]	> 6.30	> 6.30
CC(C)(Nc1nc(-c2c[nH]c3ncncc23)ncc1F)C(=O)NCCF [Compound 106]	> 6.30	> 6.30
CC(C)(Nc1nc(-c2c[nH]c3ncncc23)ncc1F)C(=O)NCC(F)F [Compound 107]	> 6.30	> 6.30
CC(C)(C(=O)NCC(F)(F)F)n1cnc2cnc(-c3c[nH]c4ncncc34)nc21 [Compound 108, 2-(2-(7H-pyrrolo[2,3-d]pyrimidin-5-yl)-9H-purin-9-yl)-N-(2,2,2-trifluoroethyl)-2-methylpropanamide]	> 6.30	> 6.30
CC(C)[C@H](C(=O)NCC(F)(F)F)n1ccc2cnc(-c3c[nH]c4ncncc34)nc21 [Compound 110, (R)-2-(2-(7H-pyrrolo[2,3-d]pyrimidin-5-yl)-7H-pyrrolo[2,3-d]pyrimidin-7-yl)-N-(2,2,2-trifluoroethyl)-3-methylbutanamide]	> 6.30	> 6.30
O=C(CCn1ccc2cnc(-c3c[nH]c4ncncc34)nc21)NCC(F)(F)F [Compound 111]	> 6.30	> 6.30
CC[C@@H](C(=O)NCC(F)(F)F)n1ccc2cnc(-c3c[nH]c4ncncc34)nc21 [Compound 112]	> 6.30	> 6.30

Further lines, results first:

pKi (JAK2)	pKi (JAK3)	SMILES
5.30 to 6.30	5.30 to 6.30	O=C(NCC(F)(F)F)C(Nc1nc(-c2c[nH]c3ncncc23)ncc1F)c1cccnc1 (centres unmarked) [Compound 67]
> 6.30	> 6.30	CC(C)[C@@H](Nc1ccnc(-c2c[nH]c3ncncc23)n1)C(=O)NCC(F)(F)F [Compound 68]
> 6.30	> 6.30	CC[C@@H](Nc1ccnc(-c2c[nH]c3ncncc23)n1)C(=O)NCC(F)(F)F [Compound 69]
> 6.30	> 6.30	O=C(NCC(F)(F)F)[C@H]1CCCN1c1ccnc(-c2c[nH]c3ncncc23)n1 [Compound 72]
> 6.30	> 6.30	CC(C)[C@H](C(=O)NCC(F)(F)F)N(C)c1ccnc(-c2c[nH]c3ncncc23)n1 [Compound 73]
> 6.30	> 6.30	CC(C)[C@H](C(=O)NCC(F)(F)F)N(C)c1nc(-c2c[nH]c3ncncc23)ncc1F [Compound 74]
5.30 to 6.30	> 6.30	CC(C)[C@](C)(Nc1nc(-c2c[nH]c3ncncc23)ncc1F)C(=O)NCC(F)(F)F [Compound 75]
> 6.30	> 6.30	O=C(CNc1ccnc(-c2c[nH]c3ncncc23)n1)NCC(F)(F)F [Compound 76]
5.30 to 6.30	> 6.30	CC[C@](C)(Nc1nc(-c2c[nH]c3ncncc23)ncc1F)C(=O)NCC(F)(F)F [Compound 77]
5.30 to 6.30	> 6.30	C[C@@H](Nc1ncnc(-c2c[nH]c3ncncc23)n1)C(=O)NCC(F)(F)F [Compound 78, (R)-2-(4-(7H-pyrrolo[2,3-d]pyrimidin-5-yl)-1,3,5-triazin-2-ylamino)-N-(2,2,2-trifluoroethyl)propanamide]
5.30 to 6.30	> 6.30	C[C@H](Nc1ncnc(-c2c[nH]c3ncncc23)n1)C(=O)NCC(F)(F)F [Compound 79, (S)-2-(4-(7H-pyrrolo[2,3-d]pyrimidin-5-yl)-1,3,5-triazin-2-ylamino)-N-(2,2,2-trifluoroethyl)propanamide]
> 6.30	> 6.30	CC[C@@](C)(Nc1nc(-c2c[nH]c3ncncc23)ncc1F)C(=O)NCC(F)(F)F [Compound 81]
> 6.30	> 6.30	O=C(CCNc1ccnc(-c2c[nH]c3ncncc23)n1)NCC(F)(F)F [Compound 82]
> 6.30	> 6.30	C[C@@H](Nc1ccnc(-c2c[nH]c3ncncc23)n1)c1ccc(F)cc1 [Compound 83]
5.30 to 6.30	> 6.30	C[C@@H](c1ccccc1)N(C)c1ccnc(-c2c[nH]c3ncncc23)n1 [Compound 86]
> 6.30	> 6.30	CC(C)[C@@](C)(Nc1ccnc(-c2c[nH]c3ncncc23)n1)C(=O)NCC(F)(F)F [Compound 87]
> 6.30	> 6.30	CC[C@](C)(Nc1ccnc(-c2c[nH]c3ncncc23)n1)C(=O)NCC(F)(F)F [Compound 88]
> 6.30	> 6.30	CCC(CC)(Nc1nc(-c2c[nH]c3ncncc23)ncc1F)C(=O)NCC(F)(F)F [Compound 89]
> 6.30	> 6.30	CCC(CC)(Nc1ccnc(-c2c[nH]c3ncncc23)n1)C(=O)NCC(F)(F)F [Compound 90]
> 6.30	> 6.30	CC[C@@H](Nc1ncnc(-c2c[nH]c3ncncc23)n1)C(=O)NCC(F)(F)F [Compound 91]
> 6.30	> 6.30	O=C(NCC(F)(F)F)C1(Nc2ncnc(-c3c[nH]c4ncncc34)n2)CCCC1 [Compound 92]
> 6.30	> 6.30	O=C(NCC(F)(F)F)[C@H]1C[C@H](O)CN1c1ccnc(-c2c[nH]c3ncncc23)n1 [Compound 94]
5.30 to 6.30	> 6.30	CN(c1nc(-c2c[nH]c3ncncc23)ncc1F)C1(C(=O)NCC(F)(F)F)CC1 [Compound 99]
> 6.30	> 6.30	CC1(C(=O)NCC(F)(F)F)CCCN1c1nc(-c2c[nH]c3ncncc23)ncc1F (centres unmarked) [Compound 102]
5.30 to 6.30	> 6.30	C[C@@H](Nc1nc(-c2c[nH]c3ncncc23)ncc1F)C(=O)N(C)CC(F)(F)F [Compound 104]
> 6.30	> 6.30	O=C(Cn1ccc2cnc(-c3c[nH]c4ncncc34)nc21)NCC(F)(F)F [Compound 109]

Reference: patent US8580802B2, “Pyrrolo[2,3-D]pyrimidines as inhibitors of Janus kinases” (Vertex Pharmaceuticals Incorporated, priority 2005, dated 2013)
